{"source": "patent US20260199343A1", "about": "(Kadmon Corporation, LLC, priority 2022, published 2026)", "key": {"MOLP-8": {"system": "MOLP-8", "test": "MOLP-8 viability, belumosudil vs Y27632 (Example 5)", "type": "cell-based, human", "settings": "10-40 μM (belumosudil effect starting at 10 μM), after 4 days of treatment", "protocol": "MOLP-8 (DSMZ, #ACC569) were maintained in RPMI1640 complete medium (RPMI1640 supplemented with 20% FBS—Eurobio #CVFSVF06-01 and 1% L-glutamine—Gibco #25030-081), incubated at 37° C. with 5% CO2 before being used.\n(§1) Before treatment, MM cells were centrifuged for 5 minutes at 300 g, counted, and resuspended in RPMI1640 complete medium to have 50000 cells/100 μl.\n(§2) Compounds and cells were then added to the appropriate wells of a Corning™ 96-Well Clear Ultra Low Attachment Microplate (Corning, #7007) (final volume of each well: 200 μl). […] MOLP-8 or LP-1 or RPMI-8226 or HD NK cells (50000 cells/well) were then added to the appropriate wells. The plate was then centrifuged for 1 minute at 100 g before being placed into an incubator at 37° C. with 5% CO2 for up to 4 days.\nAfter treatment, cells were collected and added to U bottom plates for antibody labelling. […]\n(§3) To additionally assess cell viability, DAPI (Miltenyi Biotec, #130-111-570) was added in each well before plate reading by flow cytometry. Samples were then analyzed with the MACSQuant 16 flow cytometer (Miltenyi Biotec).\n(§4) Data were analyzed with FlowJo software as shown in FIG. 3: (FIG. 3A) MOLP-8 cells excluding debris was gated, followed by gating for single cells (FIG. 3B). From the single cells, viable DAPI^neg cells were quantified (FIG. 3C)."}, "RPMI-8226": {"system": "RPMI-8226", "test": "RPMI-8226 viability, belumosudil vs Y27632 (Example 5)", "type": "cell-based, human", "settings": "10-40 μM (belumosudil effect starting at 10 μM), after 4 days of treatment", "protocol": "RPMI-8226 (ATCC, #CCL155) were maintained in RPMI1640 complete medium, incubated at 37° C. with 5% CO2 before being used.\nas §1, §2\nAfter treatment, cells were collected and added to U bottom plates for antibody labelling.\nThen, cells were centrifuged for 5 minutes at 300 g, the supernatant removed and 200 μl of AutoMACS Running buffer (Miltenyi Biotec, #130-091-221) added to each well. […]\nas §3, §4"}, "HD NK cells": {"system": "HD NK cells", "test": "HD NK cell viability, belumosudil vs Y27632 (Example 5)", "type": "cell-based, human", "settings": "10-40 μM, after 4 days of treatment", "text": "(§5) Healthy donor buffy coats were supplied by EFS Ile de France. Immediately after reception, the qualified buffy coats were put under gentle agitation overnight at room temperature. The following day, peripheral blood mononuclear cells (PBMCs) were isolated by Ficoll (Cytiva #17-1440-02) density gradient centrifugation. Human NK cells were purified from PBMCs with the MACSXpress Whole Blood NK cell isolation kit from Miltenyi Biotec (#130-127-695) by negative selection using manual magnetic labelling and the MACSxpress separator (Miltenyi Biotec #130-098-308). Then, purified NK cells were cultured in RPMI1640 medium supplemented with 10% foetal bovine serum (FBS) (Eurobio #CVFSVF06-01) and 1% of L-Glutamine (Gibco #25030-081). The cells were left to rest overnight at 37° C. with 5% CO2 before being used. […]\nas §3, §4"}, "[1]": {"system": "MM cell lines (LP1, MM1R, MM1S, OPM2)", "test": "CellTiter-Glo cell viability, panel of MM cell lines", "type": "cell-based, human", "settings": "8 days treatment", "protocol": "Cell viability was measured by CellTiter-Glo, Luminescent Cell Viability Assay normalized with DMSO."}, "C-myc protein": {"system": "C-myc protein", "test": "Western blot of C-Myc in LP1 cells", "type": "cell-based, human", "settings": "24 hours of treatment"}, "[2]": {"settings": "cited from earlier work"}, "CD38": {"system": "CD38", "settings": "bone marrow and MM cells of patients after first treatment; cited from earlier work"}, "MM1S cells": {"system": "MM1S cells", "test": "Growth inhibition of MM1S cells (CellTiterGlo / Incucyte confluency)", "type": "cell-based, human", "settings": "5-6 days", "protocol": "(§6) On Day 1, the cells were plated at 3,000 cells per well (50 ul) using 384w plate (Costar, 3765) pre-coated with Poly-D-Lysine, spun down at 300 g for 1 min at room temperature and transferred in Incucyte S3 (37° C.; 5% CO2; every 2 h kinetic read). […] Cells were further incubated in Incucyte S3 (Sartorius) for an additional 5-6 days at 37° C., 5% CO2 with the same kinetic readings. At the end, proliferation was measured by added CellTiterGlo (Promega) to assess cell viability or by using Incucyte measuring cell confluency over time. Cell growth was normalized to DMSO (100%) and staurosporine (Sigma; […]) 1 uM (0%))."}, "LP-1 cells": {"system": "LP-1 cells", "test": "Growth inhibition of LP-1 cells (CellTiterGlo / Incucyte confluency)", "type": "cell-based, human", "settings": "LP1, 5-6 days", "protocol": "as §6"}, "[3]": {"settings": "cited from earlier work", "remark": "listed apart in the source"}, "[4]": {"test": "HD NK cell viability by DAPI flow cytometry (Example 2)", "type": "cell-based", "settings": "human, healthy donor (HD) NK cells purified from PBMCs; high concentrations 25-40 μM, after 4 days of treatment; read-out: reduction of HD NK cells viability", "text": "as §5, with “fetal” for “foetal”, “#25030-081).” for “#25030-081). The cells were left to rest overnight at 37° C. with 5% CO2 before being used.”\nTo additionally assess cell viability, DAPI (Miltenyi Biotec, #130-111-570) was added in each well before plate reading by flow cytometry. Samples were then analyzed with the MACSQuant 16 flow cytometer (Miltenyi Biotec). Data were analyzed with FlowJo software using the following strategy shown in FIGS. 3A-3D: (A) MOLP-8 cells excluding debris were gated, followed by gating for single cells (B), from single cells, viable DAPI^neg cells were quantified (C), and from DAPI^neg cells, the expression of CD38 was quantified with FITC fluorochrome (D) and expressed as median of fluorescence intensity (MFI)."}}, "note": "Where a name gives a salt, the structure may show the parent alone."}
{"compound": "C[C@@H](N)[C@H]1CC[C@H](C(=O)Nc2ccncc2)CC1", "note": "[Y27632]", "values": [{"measurement": "viability of MOLP-8 (number of cells and % of live cells)", "setting": "MOLP-8", "result": "does not impact viability"}, {"measurement": "viability of RPMI-8226 (number of cells and % of live cells)", "setting": "RPMI-8226", "result": "does not impact viability"}, {"measurement": "HD NK cell viability", "setting": "HD NK cells", "result": "neither belumosudil nor Y27632 impact HD NK cell viability"}]}
{"compound": "Nc1cccc2c1C(=O)N(C1CCC(=O)NC1=O)C2=O", "note": "(racemic) [pomalidomide, (RS)-4-Amino-2-(2,6-dioxo-piperidin-3-yl)-isoindoline-1,3-dione]", "values": [{"measurement": "growth inhibition of MM cell lines", "setting": "[1]", "result": "growth inhibition in all of these MM cell lines except LP1"}, {"measurement": "C-myc protein level", "setting": "C-myc protein", "result": "very moderate effect"}, {"measurement": "solubility in all pH solutions", "setting": "[2]; all pH solutions", "result": "about 0.01 mg/mL"}, {"measurement": "solubility into organic solvents", "setting": "[2]; organic solvents", "result": "limited to low solubility"}]}
{"compound": "daratumumab: anti-CD38 antibody", "values": [{"measurement": "CD38 expression", "setting": "CD38", "result": "reduced"}]}
{"compound": "C[C@@H]1C[C@H]2[C@@H]3CCC4=CC(=O)C=C[C@]4(C)[C@@]3(F)[C@@H](O)C[C@]2(C)[C@@]1(O)C(=O)CO", "note": "[Dexamethasone, 9-fluoro-11β,17,21-trihydroxy-16α-methylpregna-1,4-diene-3,20-dione]", "values": [{"measurement": "growth inhibition, single agent", "setting": "MM1S cells", "result": "single agent growth inhibition activity"}, {"measurement": "growth inhibition, single agent", "setting": "LP-1 cells", "result": "single agent growth inhibition activity"}, {"measurement": "solubility in water", "setting": "[2]", "result": "practically insoluble in water"}, {"measurement": "stability in air", "setting": "[3]", "result": "stable in air"}]}
{"compound": "CC(C)NC(=O)COc1cccc(-c2nc(Nc3ccc4[nH]ncc4c3)c3ccccc3n2)c1", "note": "[belumosudil, 2-{3-[4-(1H-indazol-5-ylamino)-2-quinazolinyl]phenoxy}-N-(propan-2-yl) acetamide]", "values": [{"measurement": "IC50", "setting": "[1]; Homo sapiens, 192 h, LP1, MM1R, MM1S, OPM2, normalized with DMSO, read-out: IC50 of MM cell line growth inhibition", "result": "1 to 7", "unit": "µM"}, {"measurement": "cytotoxicity at 4 days", "setting": "[4]", "result": "≤ 10", "unit": "%"}]}
{"compound": "CC(C)NC(=O)COc1cccc(-c2nc(Nc3ccc4[nH]ncc4c3)c3ccccc3n2)c1", "note": "[Belumosudil mesylate, 2-{3-[4-(1H-indazol-5-ylamino)-2-quinazolinyl]phenoxy}-N-(propan-2-yl) acetamide methanesulfonate (1:1)]", "values": [{"measurement": "solubility in water", "setting": "[2]", "result": "practically insoluble in water"}]}
